In patent publication US20240246967A1, “AXL COMPOUNDS” (ARCUS BIOSCIENCES, INC., priority 2021, published 2024):

Tests used:
Axl [1] = target: T1, Axl (Homo sapiens, UniProt P30530); assay: HTRF KinEASE-TK biochemical potency assay, AXL; design: purchased Invitrogen; details: 5 nM AXL, 700 μM ATP, 800 nM TK Substrate-biotin
T1 sequence (P30530 26-894): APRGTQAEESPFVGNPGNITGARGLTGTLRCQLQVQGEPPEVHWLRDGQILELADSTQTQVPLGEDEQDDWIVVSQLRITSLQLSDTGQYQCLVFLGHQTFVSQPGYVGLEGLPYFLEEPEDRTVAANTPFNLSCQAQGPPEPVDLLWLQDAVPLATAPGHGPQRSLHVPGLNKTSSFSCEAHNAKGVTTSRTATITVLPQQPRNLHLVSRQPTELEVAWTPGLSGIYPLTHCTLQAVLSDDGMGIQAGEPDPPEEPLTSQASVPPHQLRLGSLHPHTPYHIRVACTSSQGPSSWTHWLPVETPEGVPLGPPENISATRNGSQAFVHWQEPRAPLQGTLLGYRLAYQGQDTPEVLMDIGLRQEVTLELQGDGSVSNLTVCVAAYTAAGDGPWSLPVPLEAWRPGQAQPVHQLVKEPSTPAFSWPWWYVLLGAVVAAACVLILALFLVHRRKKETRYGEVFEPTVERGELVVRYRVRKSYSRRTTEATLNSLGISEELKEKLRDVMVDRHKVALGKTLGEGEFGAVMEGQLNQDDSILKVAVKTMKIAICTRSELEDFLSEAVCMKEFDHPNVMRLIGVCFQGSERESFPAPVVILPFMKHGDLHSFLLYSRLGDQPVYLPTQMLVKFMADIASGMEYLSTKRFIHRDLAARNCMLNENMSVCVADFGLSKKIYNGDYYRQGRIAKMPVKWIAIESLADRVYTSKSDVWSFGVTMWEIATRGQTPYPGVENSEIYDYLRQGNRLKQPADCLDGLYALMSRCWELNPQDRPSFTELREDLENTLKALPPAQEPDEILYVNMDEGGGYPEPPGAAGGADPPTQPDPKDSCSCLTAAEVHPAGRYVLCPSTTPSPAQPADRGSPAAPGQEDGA
Procedure, shortened: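 Enzyme (final 5 nM AXL; 1 nM TYRO3 or MER) plus compound, 1 h RT → add biotinylated TK substrate (800 nM final) and ATP (700 μM final) → 2 h RT → stop into HTRF detection mix → read 665/620 nm. Activity normalised to DMSO and pre-stopped blanks.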

Axl [2] = target: T1, Axl; assay: Axl NanoBRET intracellular kinase assay (intracellular binding, Cell Binding); design: host or cells: HEK-293; details: HEK-293 cells transfected with Axl-NanoLuc fusion vector; 0.35 μM K-5 NanoBRET tracer
Procedure, shortened: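 BRET ratio (610 nm/450 nm) decrease from K-5 tracer displacement gave binding; IC50 by 4-parameter non-linear regression of percent activity. Live HEK-293 cells expressed transiently transfected Axl-NanoLuc. Compound 1 h, then 0.35 μM tracer 2 h, both 37 °C, 5% CO2.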

Row | Structure (SMILES) | IC50 (Axl [1]) | IC50 (Axl [2])
1 | CC1(N2CCOCC2)CCc2ccc(-c3cnc4[nH]nc(-c5ccc(S(=O)(=O)C6CC6)cc5)c4c3)cc2CC1 (stereo not drawn) [Example 2, 4-(2-{3-[4-(Cyclopropanesulfonyl)phenyl]-1H-pyrazolo[3,4-b]pyridin-5-yl}-7-methyl-6,7,8,9-tetrahydro-5H-benzo[7]annulen-7-yl)morpholine] | > 1000 nM | > 1000 nM
2 | CCC1(N2CCC[C@H]2CO)CCc2ccc(-c3cnc4[nH]nc(-c5ccc(C(N)=O)c(Cl)c5)c4c3)cc2CC1 (stereo partly drawn) [Example 75, 2-Chloro-4-(5-{7-ethyl-7-[(2S)-2-(hydroxymethyl)pyrrolidin-1-yl]-6,7,8,9-tetrahydro-5H-benzo[7]annulen-2-yl}-1H-pyrazolo[3,4-b]pyridin-3-yl)benzamide] | < 100 nM | < 100 nM
3 | C[C@@H]1CCCN1C1CCc2ccc(-c3cnc4[nH]nc(-c5cnc(C(C)(C)O)c(Cl)c5)c4c3)cc2CC1 (stereo partly drawn) [Example 65, 2-[3-Chloro-5-(5-{7-[(2R)-2-methylpyrrolidin-1-yl]-6,7,8,9-tetrahydro-5H-benzo[7]annulen-2-yl}-1H-pyrazolo[3,4-b]pyridin-3-yl)pyridin-2-yl]propan-2-ol] | < 100 nM | < 100 nM
4 | CC1(N2CCC[C@@H]2CO)CCc2ccc(-c3cnc4[nH]nc(-c5ccc(S(=O)(=O)C6CC6)cc5)c4c3)cc2CC1 (stereo partly drawn) [Example 3, [(2R)-1-(2-{3-[4-(Cyclopropanesulfonyl)phenyl]-1H-pyrazolo[3,4-b]pyridin-5-yl}-7-methyl-6,7,8,9-tetrahydro-5H-benzo[7]annulen-7-yl)pyrrolidin-2-yl]methanol] | < 100 nM | < 100 nM
5 | COC1CCN(C(=O)c2ccc(-c3n[nH]c4ncc(-c5ccc6c(c5)CC[C@@H](N5CCCC5)CC6)cc34)cc2Cl)CC1 [Example 66, (S)-(2-Chloro-4-(5-(7-(pyrrolidin-1-yl)-6,7,8,9-tetrahydro-5H-benzo[7]annulen-2-yl)-1H-pyrazolo[3,4-b]pyridin-3-yl)phenyl)(4-methoxypiperidin-1-yl)methanone] | < 100 nM | < 100 nM
6 | C[C@@H]1CCCN1C1(C)CCc2ccc(-c3cnc4[nH]nc(-c5ccc(S(=O)(=O)C6CC6)cc5)c4c3)cc2CC1 (stereo partly drawn) [Example 1, 3-(4-(Cyclopropylsulfonyl)phenyl)-5-(7-methyl-7-((R)-2-methylpyrrolidin-1-yl)-6,7,8,9-tetrahydro-5H-benzo[7]annulen-2-yl)-1H-pyrazolo[3,4-b]pyridine] | < 100 nM | < 100 nM

Other lines, results leading:

Row | IC50 (Axl [1]) | IC50 (Axl [2]) | Structure (SMILES)
7 | < 100 nM | < 100 nM | NC(=O)c1ccc(-c2n[nH]c3ncc(-c4ccc5c(c4)CCC(N4CCCC4)CC5)cc23)cc1F (stereo not drawn) [Example 81, 2-Fluoro-4-(5-(7-(pyrrolidin-1-yl)-6,7,8,9-tetrahydro-5H-benzo[7]annulen-2-yl)-1H-pyrazolo[3,4-b]pyridin-3-yl)benzamide]
8 | < 100 nM | 100 to 1000 nM | NS(=O)(=O)c1ccc(-c2n[nH]c3ncc(-c4ccc5c(c4)CCN(C4CCCC4)CC5)cc23)cc1Cl [Example 92, 2-Chloro-4-(5-(3-cyclopentyl-2,3,4,5-tetrahydro-1H-benzo[d]azepin-7-yl)-1H-pyrazolo[3,4-b]pyridin-3-yl)benzenesulfonamide]
9 | < 100 nM | < 100 nM | O=C(c1ccc(-c2n[nH]c3ncc(-c4ccc5c(c4)CC[C@@H](N4CCCC4)CC5)cc23)cc1Cl)N1CCNCC1 [Example 82, (S)-(2-Chloro-4-(5-(7-(pyrrolidin-1-yl)-6,7,8,9-tetrahydro-5H-benzo[7]annulen-2-yl)-1H-pyrazolo[3,4-b]pyridin-3-yl)phenyl)(piperazin-1-yl)methanone]
10 | < 100 nM | < 100 nM | NC(=O)c1ccc(-c2n[nH]c3ncc(-c4ccc5c(c4)CCC(N4CCCC4)CC5)cc23)cc1Cl (stereo not drawn) [Example 77, 2-Chloro-4-(5-(7-(pyrrolidin-1-yl)-6,7,8,9-tetrahydro-5H-benzo[7]annulen-2-yl)-1H-pyrazolo[3,4-b]pyridin-3-yl)benzamide]
11 | < 100 nM | < 100 nM | Cc1cc(-c2n[nH]c3ncc(-c4ccc5c(c4)CCC(N4CCCC4)CC5)cc23)cc(F)c1C(N)=O (stereo not drawn) [Example 79, 2-Fluoro-6-methyl-4-(5-(7-(pyrrolidin-1-yl)-6,7,8,9-tetrahydro-5H-benzo[7]annulen-2-yl)-1H-pyrazolo[3,4-b]pyridin-3-yl)benzamide]
12 | < 100 nM | 100 to 1000 nM | COc1cc(-c2n[nH]c3ncc(-c4ccc5c(c4)CCC(C)(N4CCC[C@H]4C)CC5)cc23)ccc1S(N)(=O)=O (stereo partly drawn) [Example 87, 2-Methoxy-4-(5-(7-methyl-7-((R)-2-methylpyrrolidin-1-yl)-6,7,8,9-tetrahydro-5H-benzo[7]annulen-2-yl)-1H-pyrazolo[3,4-b]pyridin-3-yl)benzenesulfonamide]
